The values that follow come from patent US20190090476A1, “MICROEMULSIONS FOR AGRICULTURAL USE” (Florida Chemical Company, Inc., priority 2017, published 2019).

Series [1] is described as follows: HSP distance Ra and relative energy difference RED of solvents versus plant wax HSP values. The text has this: The HSP distance between two molecules, conventionally called Ra, is the measure of how alike they are. The smaller the Ra, the more likely they are to be compatible. A quantity called the relative energy difference (RED) may be used to measure relative distance:
where Ro is the radius of the sphere that contains all good solvents. […] Generally, a value of Ro=7.1 is typical. For RED<1, the molecules are alike and will dissolve. For RED=1, the system will partially dissolve. For RED>1, the system will not dissolve.
A solvent with similar HSP values to these, or a solvent for which Ra (calculated as shown above) is small, or for which RED is less than or equal to 1, would be expected to partially solvate and soften plant leaf cuticle waxes.

For series [2] the following is noted: cited from earlier work.

In the case of `CCCCCCCO` [heptanol], the “Ra 2” value in series [1] (HSP distance to lower plant wax HSP values (δD=16.0-16.3, δP 0-2.5, δH=0-3.1)) was 9.3. For the same compound, the “Ra 1” value in series [1] (HSP distance to upper plant wax HSP values (δD=16.0-16.3, δP 0-2.5, δH=0-3.1)) is 13.0. The “RED 1” value in series [1] (RED=Ra 1/Ro, Ro=7.1) worked out at 1.83. Also, the “RED 2” value in series [1] (RED=Ra 2/Ro, Ro=7.1) was found to be 1.31. Further, the δD in series [2] (energy from dispersion forces) was 16.57 MPa^1/2. Besides, the δH in series [2] (energy from hydrogen bonds) is given as 12.27 MPa^1/2. Moreover, the δP in series [2] (energy from polar intermolecular force) is given as 4.09 MPa^1/2.
